Measured values from publication PMC8111499, “GW117: A novel serotonin (5‐HT2C) receptor antagonist and melatonin (MT1/MT2) receptor agonist with potential antidepressant‐like activity in rodents” (CNS Neuroscience & Therapeutics, 2021).

Experiments:
[1] = previous study; cited from earlier work
[2] = test system: CUS rats; assay: Sucrose preference test in CUS rats; type: in vivo; details: chronic, 5, 10, 20, and 40 mg/kg, vs. CUS‐vehicle
Experimental: In order to further examine the antidepressant effects of GW117, chronic unpredictable stress (CUS) model was utilized; the methods were as described before. ^29 , ^31 After 1 week of training, rats underwent sucrose training of 48 h. After training, a sucrose baseline test was performed. […] Gastric gavage was given 1 h before the stress (08:00–09:00). Except for the non‐stressed group, all rats were stimulated by a series of stressors. stress methods included the following: fast on food and water (24 h), moisture cage (150 g sawdust bedding in 200 ml water), overnight illumination, low‐intensity strobe illumination (100 flashes/min), forced swimming (5 min at 10℃), white noise (110 dB), tail pinch (1 cm from tail root, 6 min), 45℃ cage tilt, and restraint (1–2 h). Stressors need to be used continuously and randomly. Non‐stressed rats received free food and water, but were required to fast for 14 h before sucrose preference test. After 4 weeks of stress, the sucrose preference test (SPT) (on day 25), open field test (OFT) (on day 28), and novelty‐suppressed feeding (NSF) test (on day 29) were carried out.
The SPT was performed as previously reported. ^32 Rats were trained to administer sucrose water solution after 48 h fasting and water deprivation. […] Sucrose and water intake were measured, and sucrose preference was calculated: SP =sucrose intake ×100%/ (sucrose intake +water intake). […]

[3] = biological target: T1, MT2 receptor (Homo sapiens, UniProt P49286); assay: MT2 receptor binding assay ([3H]‐melatonin competition); details: mean ± SEM, three independent experiments
T1 construct: purchased Perkin‐Elmer ES‐621
T1 sequence (P49286 1-362): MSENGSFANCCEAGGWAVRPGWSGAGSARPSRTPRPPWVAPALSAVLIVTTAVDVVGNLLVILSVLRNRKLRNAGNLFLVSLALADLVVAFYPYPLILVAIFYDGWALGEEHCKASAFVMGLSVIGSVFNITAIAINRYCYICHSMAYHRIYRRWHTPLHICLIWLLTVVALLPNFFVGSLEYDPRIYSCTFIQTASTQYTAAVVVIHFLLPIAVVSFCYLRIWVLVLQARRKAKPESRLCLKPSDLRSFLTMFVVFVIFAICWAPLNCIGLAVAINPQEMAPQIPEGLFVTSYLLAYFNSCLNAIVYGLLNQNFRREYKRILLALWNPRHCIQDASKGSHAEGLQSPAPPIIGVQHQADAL
Experimental: The stably transfected 5‐HT2C receptor HEK293 cell line was prepared using a nucleus‐cytoplasm‐membrane preparation kit (Applagin Technologies Inc.). Briefly, cells were harvested at 4°C, 110 00 × g and centrifugation for 5 min. Homogenize pellets in the assay buffer (50 mM Tris‐HCl buffer containing 120 mM NaCl and 5 mM KCl, pH 7.4) and then centrifuged twice at 4°C, 36,000 × g for 15 min. Finally, pellets were re‐suspended in assay buffer and stored it at −80°C until it is used for in vitro experiments.
Receptor membrane protein, MT1 or MT2 (10 μl), was added to all pipes. Non‐specific binding was determined by the presence of unlabeled 10 µM melatonin and pre‐reacted for 30 min. In test tubes, 30 μl of test drugs (MT1: concentration, 10^−4–10^−10 M; MT2: concentration, 10^−4–10^−11 M) was added. Additionally, 40 μl [^3H]‐melatonin was added to all tubes. The volume in all reaction tubes was made up to 300 μl with Tris‐HCl buffer (50 mM, pH 7.4). Reactions were performed at 25°C for 1 h. The mixture was then spotted onto a type 49 glass fiber filter paper, suction filtered under vacuum, rinsed three times with 2 ml ice‐cold Tris‐HCl buffer (50 mM, pH 7.4), and dried by suction. […] Finally, 1 ml of scintillation fluid was added and then the radioactive intensity measured by liquid scintillation counting.

[4] = test system: rats; assay: Forced swimming test in rats; type: in vivo, Sprague Dawley (SD) rats; details: single dose p.o., 10, 20, or 40 mg/kg, vs. vehicle
Experimental: The forced swimming test (FST) was conducted as described earlier. ^30 Eighty naive rats were randomized into eight treatment groups (n = 9‐12/group). All rats received a single drug administration (p.o.). The procedure consisted of two sessions, to be specific, a pre‐test session and a test session. A cylindrical container (diameter, 20 cm; height, 40 cm; including 30 cm of water and kept at 25℃) was used. During the pre‐test phase, rats were required to perform forced swimming for 15 min. The test session was performed 24 h later, put the rats in the same cylindrical container for 5 min and immobility duration over 5 min recorded. […] Rats were considered immobile when they entered a floating posture, specifically, immobile, passive, and with their heads above water.

[5] = biological target: T2, MT1 receptor (Homo sapiens, UniProt P48039); assay: [35S]‐GTPγS binding assay, MT1; type: biochemical
T2 construct: purchased Perkin‐Elmer ES‐620
T2 sequence (P48039 whole entry): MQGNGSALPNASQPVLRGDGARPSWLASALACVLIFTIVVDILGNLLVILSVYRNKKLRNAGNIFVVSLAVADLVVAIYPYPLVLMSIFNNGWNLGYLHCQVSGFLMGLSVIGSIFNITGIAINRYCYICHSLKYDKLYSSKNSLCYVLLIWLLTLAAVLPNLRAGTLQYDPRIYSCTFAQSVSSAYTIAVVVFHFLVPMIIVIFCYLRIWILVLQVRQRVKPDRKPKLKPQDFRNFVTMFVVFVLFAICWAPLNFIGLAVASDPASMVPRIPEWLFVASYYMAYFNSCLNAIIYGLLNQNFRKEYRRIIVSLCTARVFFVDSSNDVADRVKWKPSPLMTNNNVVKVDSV
Experimental: This experiment was mentioned earlier. ^27 In short, HEK293 cell membrane stably expressing human 5‐HT2C receptors or rat hippocampal tissue membrane or MT1/MT2 receptors was re‐suspended in buffer (50 mmol/L Tris, 100 mmol/L NaCl, 5 mmol/L MgCl2·6H2O, 0.1 mmol/L EDTA‐Na2·6H2O, 0.2 mmol/L EGTA, pH 7.4) and incubated with the test compound (100 μM GDP, 0.2 nM [^35S]‐GTP, or [^3H]PIP) for 60 min at 28℃. At the end of the experiment, Whatman GF/C filters pre‐soaked with distilled water were used for rapid filtration followed by washing with 5 ml of ice‐cold Tris buffer. Determination of non‐specific binding in the presence of GTPγS and radioactivity was measured by liquid scintillation counting. Calculation of the concentration produces a half‐maximal effect (EC50) and the maximal increase above the baseline value.

[6] = test system: mice; assay: Tail suspension test in mice; type: in vivo, ICR mice
Experimental: The tail suspension test (TST) was conducted as described earlier. ^28 , ^29 Eighty naive mice were randomly divided into eight treatment groups (n = 10/group). All mice received a single dose of the drug (p.o.). After 60 min of gavage administration, mice were suspended from the top of the apparatus (25 × 25 × 35 cm) using tape about 1 cm from the tail tip. The duration of immobility was recorded in the last 4 min for a total of 6 min. When mice are passively suspended immobile, they are judged to be stationary.

Structure (SMILES): [2H]C([2H])([2H])Oc1cc2c(CCNC(C)=O)cccc2cc1Cl [GW117]
- toxic effects compared with agomelatine [1]: lower toxic effects
- sucrose preference [2]: markedly increased sucrose preference
- Ki [3]: 0.054 ± 0.00731 µM
- immobility time in FST [4]: markedly reduced the immobility time
- character of effect on MT1 receptor ([5]; [35S]‐GTPγS binding): full agonist
- Emax ([5]; [35S]‐GTPγS binding, read-out: maximal increase over basal binding (% Emax), MT1 receptor): 104 ± 7.34%
- EC50 ([5]; read-out: EC50 of stimulation of specific [35S]‐GTPγS binding, MT1 receptor): 0.00249 µM
- immobility time in TST ([6]; acute, p.o., 20 and 40 mg/kg, vs. vehicle): markedly reduced the immobility time
- minimal effective dose in TST ([6]; immobility time): 20 mg/kg
